From US7629361B2, “Salt of (S)-pantoprazole and its hydrates” (NYCOMED GmbH, priority 2002, dated 2009) come the findings set out here.

The nature of data set [1]: Hygroscopicity / water content of the salts. The settings on record: depending on drying conditions and atmospheric humidity. The format is physicochemical. Here is the method:
Drying was carried out in a vacuum drying cabinet at <50 mbar and 40-45° C. [It is also possible to dispense with drying and to use the moist product (having an MIBK content of 10-20%) directly for step B].

In data set [2] the test system is pentagastrin-stimulated acid output in the Ghosh-Schild rat. In words: Inhibition of acid output in the Ghosh-Schild rat after i.v. administration. The format is in vivo. The settings on record: 1 μmol/kg i.v. 3 hours prior to pentagastrin stimulation; 3 to 7.5 hours after administration; FIG. 3; listed as (−)-enantiomer, Dihydrate. Here is the method:
Female Sprague Dawley CD rats (190-210 g body weight) were anaesthetised with 1.5 g/kg i.m. of urethane, in 5 ml/kg physiologic saline. The trachea was intubated and both, the left external jugular vein (for drug administration) and left femoral vein (for pentagastrin infusion) were cannulated. An esophagus/cardia-cannula (diameter: 1.7 mm) was inserted transorally, and a pylorus-cannula (diameter: 2.6 mm) was inserted through the duodenum, and both were secured with a ligature. The pyloric catheter was led through the right abdominal wall. Body temperature was maintained at 37.0±0.2° C. by means of infrared radiation and electric cushion (automatic infinite control via rectal temperature probe). After thorough flushing (about 50-100 ml), the stomach was continuously perfused with 0.5 ml/min of physiologic saline (37° C.). In the effluate, collected at 15 min intervals, the pH as well as the acid output were determined, the latter by titration to pH 7 with freshly prepared 0.01 N NaOH.
Gastric secretion was stimulated by a continuous intravenous infusion (left femoral vein) of 1 μg/kg×min pentagastrin (in 1.6 ml/h physiologic saline) starting after determination of two basal values of acid secretion, i.e., 30 min after commencement of stomach perfusion. See horizontal bars in FIGS. 1 and 2 for pentagastrin-infusion. […]

The nature of data set [3]: Storage stability of the solid salts at elevated temperature.
A short description of data set [4]: Wettability, dissolution rate and solubility compared to racemic pantoprazole magnesium dihydrate.
Another data set deals with human liver microsomes. In words: Metabolization on human liver microsomes. The format is in vitro ADME. The note with it: 10 μM, 1 mg/ml protein, 120 min, n=3. Here is the method:
(§1) I) Human liver microsomes: Pantoprazole racemate and the (+)- and (−)-enantiomers (10 μM each) were incubated with human liver microsomes (source: TEBU, incubation in 1 mg/ml protein, 100 mM Tris-HCl, pH 7.4, 1 mM NADPH2). Reaction was terminated after 30 and 120 minutes by liquid nitrogen, the parent compound was detected by HPLC (10 mM KH2PO4, pH 7.4, acetonitril gradient 20-48%).
In general terms: Microsomes from liver hold many membrane-bound enzymes, among them those of drug oxidation.

A further data set addresses T1, Recombinant CYP 2C19 (Homo sapiens, UniProt P33261).
T1 construct: purchased GENTEST
In words: Metabolization on recombinant CYP 2C19. The settings on record: 10 μM, 0.1 mg/ml protein, 120 min, n=3. The format is in vitro ADME. Here is the method: as §1
II) Recombinant CYP 2C19 (source: GENTEST); incubation method as described under I) (in presence of 0.1 mg/ml protein).

Entries after “also recorded” stand apart in the source; their conditions may differ.

T1 sequence (P33261 whole entry): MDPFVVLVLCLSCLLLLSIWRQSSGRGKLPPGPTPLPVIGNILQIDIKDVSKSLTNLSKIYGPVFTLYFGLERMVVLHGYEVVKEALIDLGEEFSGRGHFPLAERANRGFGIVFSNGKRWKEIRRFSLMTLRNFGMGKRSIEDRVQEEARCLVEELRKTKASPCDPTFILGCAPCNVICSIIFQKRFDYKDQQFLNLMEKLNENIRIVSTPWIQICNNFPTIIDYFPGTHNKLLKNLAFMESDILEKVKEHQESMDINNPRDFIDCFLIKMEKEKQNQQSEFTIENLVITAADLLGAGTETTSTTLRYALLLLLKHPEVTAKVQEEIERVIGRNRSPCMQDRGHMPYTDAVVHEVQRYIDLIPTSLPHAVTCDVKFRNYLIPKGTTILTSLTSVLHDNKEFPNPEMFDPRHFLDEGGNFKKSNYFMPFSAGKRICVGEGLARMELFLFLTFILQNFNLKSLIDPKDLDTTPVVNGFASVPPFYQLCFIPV

Regarding `COc1ccnc(C[S+]([O-])c2nc3cc(OC(F)F)ccc3[n-]2)c1OC.COc1ccnc(C[S+]([O-])c2nc3cc(OC(F)F)ccc3[n-]2)c1OC.[Ca+2]` (single isomer, unassigned; (-)) [(−)-pantoprazole calcium], the water content in data set [1] is recorded as 4-8%.

Consider “Magnesium (−)-bis{[5-(difluoromethoxy)]-2-[(3,4-dimethoxy-2-pyridinyl)methylsulphinyl]-1H-benzimidazolide} Dihydrate [(−)-pantoprazole magnesium dihydrate]”, for which, in data set [1], the “hygroscopicity (absorption of water)” value was “non-hygroscopic” and the water content entry is reported as “about 4.4%”. In addition, the “inhibition of acid secretion, Experiment 2, compared to the (+)-enantiomer” value in data set [2] is given as “significantly superior; also recorded: significantly more effective”. For the same molecule, the “stability (discolouration, decomposition) on storage” value in data set [3] (70° C., one week) is recorded as “completely stable”. Moreover, in data set [3] (storage under atmospheric conditions, 60-70° C.), the “sum of by-products on storage” value was “remains virtually constant”. Moreover, the “wettability compared to racemic pantoprazole magnesium dihydrate” value in data set [4] was “better wettability”. The “dissolution rate compared to racemic pantoprazole magnesium dihydrate” value in data set [4] (pH 7-7.4) is “considerably higher dissolution rate”. Further, in data set [4] (pH 10), the “solubility relative to racemic pantoprazole magnesium dihydrate” value is “about tenfold”.

In the case of `COc1ccnc(C[S+]([O-])c2nc3cc(OC(F)F)ccc3[nH]2)c1OC` (single isomer, unassigned; (-)) [(−)-Pantoprazole, (−)-[5-(difluoromethoxy)]-2-[(3,4-dimethoxy-2-pyridinyl)methylsulphinyl]-1H-benzimidazole], in the data set with human liver microsomes, the “metabolized on human microsomes (mean)” value came to 26%. The “metabolized on CYP2C19 (mean)” value on Recombinant CYP 2C19 was determined as 54%.

As to `COc1ccnc(C[S+]([O-])c2nc3ccc(OC(F)F)cc3[nH]2)c1OC` (single isomer, unassigned; (+)) [(+) enantiomer], in the data set with human liver microsomes, the “metabolized on human microsomes (mean)” value is recorded as 44%. The “metabolized on CYP2C19 (mean)” value on Recombinant CYP 2C19 was found to be 64%.

Consider `COc1ccnc(C[S+]([O-])c2nc3cc(OC(F)F)ccc3[n-]2)c1OC.[Na+]` (single isomer, unassigned; (-)) [(−)-pantoprazole sodium], for which the results for the “hygroscopicity (absorption of water)” value in data set [1] and in data set [1] (listed as (−)-Pantoprazole-Na) were “absorbs water” and “hygroscopic”, respectively. Moreover, the “purity (according to HPLC) after storage” value in data set [3] (storage at 60-70° C., atmospheric conditions, starting purity 99.5%) was 96-97%.

Regarding `COc1ccnc(C[S+]([O-])c2nc3ccc(OC(F)F)cc3[nH]2)c1OC` (racemic) [racemate, 5-difluoromethoxy-2-[(3,4-dimethoxy-2-pyridinyl)methylsulphinyl]-1H-benzimidazole], the “metabolized on human microsomes (mean)” value in the data set on human liver microsomes is 44%. For the same molecule, the “metabolized on CYP2C19 (mean)” value at Recombinant CYP 2C19 came to 67%.
